How the values were obtained:
[1] = biological target: BIR3 domain of XIAP (Homo sapiens (Human), UniProt P98170); assay: TR-FRET assay for BIR3: inhibition of binding of XIAP BIR3 domain to Peptide A (SMAC-derived peptide); details: 6× His-tagged BIR3 domain (aa 241-356 of XIAP) 10 nM, Peptide A 20 nM
[2] = biological target: BIR2 domain of XIAP (Homo sapiens (Human), UniProt P98170, C202A/C213G); assay: TR-FRET assay for BIR2: inhibition of binding of XIAP BIR2 domain to Peptide A (SMAC-derived peptide); details: 6× His-tagged BIR2 domain (aa 124-240 of XIAP) 10 nM, Peptide A 20 nM
Chain of BIR2 domain of XIAP (P98170 other isoform, or with tags, fused parts or gaps, stated change not applied): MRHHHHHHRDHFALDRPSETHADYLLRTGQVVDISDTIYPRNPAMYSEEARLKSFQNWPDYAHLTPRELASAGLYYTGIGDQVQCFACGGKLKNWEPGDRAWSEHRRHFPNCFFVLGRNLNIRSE
Protocol: TR-FRET Assay for BIR2 and BIR3
The peptides were labeled with the fluorescent tags FITC or TAMRA and Kd values were determined by fluorescence polarization assay. […] The peptide sequence was derivatized with biotin to provide […]-(ε-biotin)-OH 1:2 TFA as the substrate for the TR-FRET assay.
The XIAP protein sequence was obtained from the SWISS-PROT protein sequence database and the BIR2 and BIR3 domains were derived from that. The sequence of the BIR2 domain used for the TR-FRET assay is […].
Time-resolved fluorescence resonance energy transfer (TR-FRET) signals were measured 1 hour later at room temperature. Test compound potency was assessed at 10 serially diluted concentrations. Percentage of inhibition at each concentration was determined to generate an IC50 value for each test compound.

Chain of BIR3 domain of XIAP (P98170 other isoform, or with tags, fused parts or gaps): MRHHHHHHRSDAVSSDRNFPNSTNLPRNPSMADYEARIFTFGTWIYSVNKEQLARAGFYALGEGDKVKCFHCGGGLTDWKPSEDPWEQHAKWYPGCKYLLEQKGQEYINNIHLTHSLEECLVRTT

| IC50 [1] [nM] | IC50 [2] [nM] | SMILES |
| --- | --- | --- |
| > 5480 | 1.32 | CN[C@@H](C)C(=O)N[C@H]1CN(C(=O)c2cncc(C(=O)N3C[C@H](NC(=O)[C@H](C)NC)C(=O)N(Cc4c(OC)ccc5cc(Br)ccc45)c4ccccc43)c2)c2ccccc2N(Cc2c(OC)ccc3cc(Br)ccc23)C1=O [Ex 8, (2S)-N-[(3S)-5-[(6-Bromo-2-methoxy-1-naphthyl)methyl]-1-[5-[(3S)-5-[(6-bromo-2-methoxy-1-naphthyl)methyl]-3-[[(2S)-2-(methylamino)propanoyl]amino]-4-oxo-2,3-dihydro-1,5-benzodiazepine-1-carbonyl]pyridine-3-carbonyl]-4-oxo-2,3-dihydro-1,5-benzodiazepin-3-yl]-2-(methylamino)propanamide] |
| > 5480 | 1.38 | CN[C@@H](C)C(=O)N[C@H]1CN(C(=O)c2ccc(C(=O)N3C[C@H](NC(=O)[C@H](C)NC)C(=O)N(Cc4c(OC)ccc5cc(Br)ccc45)c4ccccc43)c(C)c2)c2ccccc2N(Cc2c(OC)ccc3cc(Br)ccc23)C1=O [Ex 10, (2S)-N-[(3S)-5-[(6-Bromo-2-methoxy-1-naphthyl)methyl]-1-[4-[(3S)-5-[(6-bromo-2-methoxy-1-naphthyl)methyl]-3-[[(2S)-2-(methylamino)propanoyl]amino]-4-oxo-2,3-dihydro-1,5-benzodiazepine-1-carbonyl]-3-methyl-benzoyl]-4-oxo-2,3-dihydro-1,5-benzodiazepin-3-yl]-2-(methylamino)propanamide] |
| > 5480 | 0.801 | CN[C@@H](C)C(=O)N[C@H]1CN(C(=O)c2cc(C)c(C(=O)N3C[C@H](NC(=O)[C@H](C)N)C(=O)N(Cc4c(OC)ccc5cc(Br)ccc45)c4ccccc43)cc2C)c2ccccc2N(Cc2c(OC)ccc3cc(Br)ccc23)C1=O [Ex 13, (2S)-2-Amino-N-[(3S)-5-[(6-bromo-2-methoxy-1-naphthyl)methyl]-1-[4-[(3S)-5-[(6-bromo-2-methoxy-1-naphthyl)methyl]-3-[[(2S)-2-(methylamino)propanoyl]amino]-4-oxo-2,3-dihydro-1,5-benzodiazepine-1-carbonyl]-2,5-dimethyl-benzoyl]-4-oxo-2,3-dihydro-1,5-benzodiazepin-3-yl]propanamide] |
| > 5480 | 0.871 | CN[C@@H](C)C(=O)N[C@H]1CN(C(=O)CCCCCCC(=O)N2C[C@H](NC(=O)[C@H](C)NC)C(=O)N(Cc3c(OC)ccc4cc(Br)ccc34)c3ccccc32)c2ccccc2N(Cc2c(OC)ccc3cc(Br)ccc23)C1=O [Ex 18, (2S)-N-[(3S)-5-[(6-Bromo-2-methoxy-1-naphthyl)methyl]-1-[8-[(3S)-5-[(6-bromo-2-methoxy-1-naphthyl)methyl]-3-[[(2S)-2-(methylamino)propanoyl]amino]-4-oxo-2,3-dihydro-1,5-benzodiazepin-1-yl]-8-oxo-octanoyl]-4-oxo-2,3-dihydro-1,5-benzodiazepin-3-yl]-2-(methylamino)propanamide] |

From US9409888B2, “Dimeric compounds” (priority 2012, dated 2016)
